According to patent publication US20240246964A1 (Arbutus Biopharma Corporation, priority 2021, published 2024):
Several values for one entry are separate records, joined by “and”; a condition that tells them apart may be missing. Identical values can stand only once.

Target: human PD-L1 (Homo sapiens (Human), UniProt Q9NZQ7)
Test: T cell activation luciferase reporter cell culture system (T Cell Activation Assay)
Assay type: cell-based
Conditions: luciferase reporter assay; PD-L1 aAPC/CHO-K1 cells with PD-1 effector Jurkat T cells

Sequence of human PD-L1 (Q9NZQ7 19-290): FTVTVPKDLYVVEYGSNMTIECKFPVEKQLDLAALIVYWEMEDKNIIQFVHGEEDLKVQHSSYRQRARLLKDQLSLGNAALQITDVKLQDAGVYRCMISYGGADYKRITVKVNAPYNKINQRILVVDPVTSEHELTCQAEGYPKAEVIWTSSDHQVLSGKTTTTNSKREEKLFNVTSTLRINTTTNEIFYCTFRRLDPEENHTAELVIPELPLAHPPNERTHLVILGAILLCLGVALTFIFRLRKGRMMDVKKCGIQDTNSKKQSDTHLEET

Row | EC50 | SMILES
1 | 399 nM | COc1cc(-c2nccc(-c3cccc(-c4ccc(CNC[C@@H]5CCC(=O)N5)c(OC)n4)c3Cl)c2Cl)cc2c1CN(CC(O)C(C)C)CC2 (stereo partly drawn) [Cmpd 53, (5S)-5-((((6-(2-chloro-3-(3-chloro-2-(2-(2-hydroxy-3-methylbutyl)-8-methoxy-1,2,3,4-tetrahydroisoquinolin-6-yl)pyridin-4-yl)phenyl)-2-methoxypyridin-3-yl)methyl)amino)methyl)pyrrolidin-2-one]
2 | 24.3 nM and 21.5 nM | COc1cc(-c2nccc(-c3cccc(-c4ccc(CNC[C@@H]5CCC(=O)N5)c(OC)n4)c3Cl)c2Cl)cc2c1CN(CCO)CC2 [Cmpd 54, (S)-5-((((6-(2-chloro-3-(3-chloro-2-(2-(2-hydroxyethyl)-8-methoxy-1,2,3,4-tetrahydroisoquinolin-6-yl)pyridin-4-yl)phenyl)-2-methoxypyridin-3-yl)methyl)amino)methyl)pyrrolidin-2-one]
3 | 19.8 nM | COc1cc(-c2nccc(-c3cccc(-c4ccc5c(CNC6CCN(C(C)=O)CC6)cn(C)c5n4)c3Cl)c2Cl)ccc1CNC[C@@H]1CCC(=O)N1 [Cmpd 57, (S)-5-(((4-(4-(3-(3-(((1-acetylpiperidin-4-yl)amino)methyl)-1-methyl-1H-pyrrolo[2,3-b]pyridin-6-yl)-2-chlorophenyl)-3-chloropyridin-2-yl)-2-methoxybenzyl)amino)methyl)pyrrolidin-2-one]
4 | 37.3 nM | COc1cc(-c2nccc(-c3cccc(-c4ccc5c(CNC[C@@H]6CCO6)cn(C)c5n4)c3Cl)c2Cl)ccc1CNC[C@@H]1CCC(=O)N1 [Cmpd 58, (S)-5-(((4-(3-chloro-4-(2-chloro-3-(1-methyl-3-(((((S)-oxetan-2-yl)methyl)amino)methyl)-1H-pyrrolo[2,3-b]pyridin-6-yl)phenyl)pyridin-2-yl)-2-methoxybenzyl)amino)methyl)pyrrolidin-2-one]
5 | 50.8 nM | COc1cc(-c2nccc(-c3cccc(-c4ccc5c(CNC6CCOCC6)cn(C)c5n4)c3Cl)c2Cl)ccc1CNC[C@@H]1CCC(=O)N1 [Cmpd 59, (S)-5-(((4-(3-chloro-4-(2-chloro-3-(1-methyl-3-(((tetrahydro-2H-pyran-4-yl)amino)methyl)-1H-pyrrolo[2,3-b]pyridin-6-yl)phenyl)pyridin-2-yl)-2-methoxybenzyl)amino)methyl)pyrrolidin-2-one]
6 | 44.6 nM | COc1cc(-c2nccc(-c3cccc(-c4ccc5c(CNC6CCS(=O)(=O)CC6)cn(C)c5n4)c3Cl)c2Cl)ccc1CNC[C@@H]1CCC(=O)N1 [Cmpd 60, (S)-5-(((4-(3-chloro-4-(2-chloro-3-(3-(((1,1-dioxidotetrahydro-2H-thiopyran-4-yl)amino)methyl)-1-methyl-1H-pyrrolo[2,3-b]pyridin-6-yl)phenyl)pyridin-2-yl)-2-methoxybenzyl)amino)methyl)pyrrolidin-2-one]
7 | 75.5 nM | COc1nc(-c2cccc(-c3ccnc(-c4cc(F)c5c(c4)CCN(C[C@@H]4CCC(=O)N4)C5)c3Cl)c2Cl)ccc1CNC[C@@H]1CCC(=O)N1 [Cmpd 61, (S)-5-((((6-(2-chloro-3-(3-chloro-2-(8-fluoro-2-(((S)-5-oxopyrrolidin-2-yl)methyl)-1,2,3,4-tetrahydroisoquinolin-6-yl)pyridin-4-yl)phenyl)-2-methoxypyridin-3-yl)methyl)amino)methyl)pyrrolidin-2-one]
8 | 27 nM | COc1cc(-c2nccc(-c3cccc(-c4ccc(CNC[C@@H]5CCC(=O)N5)c(OC)n4)c3Cl)c2Cl)cc2c1CN(CC1CCN(C(C)=O)CC1)CC2 [Cmpd 62, (S)-5-((((6-(3-(2-(2-((1-acetylpiperidin-4-yl)methyl)-8-methoxy-1,2,3,4-tetrahydroisoquinolin-6-yl)-3-chloropyridin-4-yl)-2-chlorophenyl)-2-methoxypyridin-3-yl)methyl)amino)methyl)pyrrolidin-2-one]
9 | 40.8 nM | COc1cc(-c2nccc(-c3cccc(-c4ccc(CNC[C@@H]5CCC(=O)N5)c(OC)n4)c3Cl)c2Cl)cc2c1CN(CCCF)CC2 [Cmpd 63, (S)-5-((((6-(2-chloro-3-(3-chloro-2-(2-(3-fluoropropyl)-8-methoxy-1,2,3,4-tetrahydroisoquinolin-6-yl)pyridin-4-yl)phenyl)-2-methoxypyridin-3-yl)methyl)amino)methyl)pyrrolidin-2-one]
10 | 71.9 nM | COc1cc(-c2nccc(-c3cccc(-c4ccc(CNC[C@@H]5CCC(=O)N5)c(OC)n4)c3Cl)c2Cl)cc2c1CN(CCC1CCNCC1)CC2 [Cmpd 64, (S)-5-((((6-(2-chloro-3-(3-chloro-2-(8-methoxy-2-(2-(piperidin-4-yl)ethyl)-1,2,3,4-tetrahydroisoquinolin-6-yl)pyridin-4-yl)phenyl)-2-methoxypyridin-3-yl)methyl)amino)methyl)pyrrolidin-2-one]
11 | 194 nM | COc1nc(-c2cccc(-c3ccnc(-c4cc(F)c5c(c4)CCN(CCCF)C5)c3Cl)c2Cl)ccc1CNC[C@@H]1CCC(=O)N1 [Cmpd 65, (S)-5-((((6-(2-chloro-3-(3-chloro-2-(8-fluoro-2-(3-fluoropropyl)-1,2,3,4-tetrahydroisoquinolin-6-yl)pyridin-4-yl)phenyl)-2-methoxypyridin-3-yl)methyl)amino)methyl)pyrrolidin-2-one]
12 | 101 nM | COc1nc(-c2cccc(-c3ccnc(-c4cc(Cl)c5c(c4)CCN(C[C@@H]4CCC(=O)N4)C5)c3Cl)c2Cl)ccc1CNC[C@@H]1CCC(=O)N1 [Cmpd 67, (S)-5-((((6-(2-chloro-3-(3-chloro-2-(8-chloro-2-(((S)-5-oxopyrrolidin-2-yl)methyl)-1,2,3,4-tetrahydroisoquinolin-6-yl)pyridin-4-yl)phenyl)-2-methoxypyridin-3-yl)methyl)amino)methyl)pyrrolidin-2-one]
13 | 413 nM | COc1cc(-c2nccc(-c3cccc(-c4ccc(CNC[C@@H]5CCC(=O)N5)c(OC)n4)c3Cl)c2Cl)ccc1CN1CCC[C@H]1C(=O)OC(C)C [Cmpd 68, isopropyl (4-(3-chloro-4-(2-chloro-3-(6-methoxy-5-(((((S)-5-oxopyrrolidin-2-yl)methyl)amino)methyl)pyridin-2-yl)phenyl)pyridin-2-yl)-2-methoxybenzyl)-L-prolinate]
14 | 56.6 nM | COc1nc(-c2cccc(-c3ccnc(-c4cc(Cl)c5c(c4)CCN(C[C@H](C)O)C5)c3Cl)c2Cl)ccc1CNC[C@@H]1CCC(=O)N1 [Cmpd 69, (S)-5-((((6-(2-chloro-3-(3-chloro-2-(8-chloro-2-((S)-2-hydroxypropyl)-1,2,3,4-tetrahydroisoquinolin-6-yl)pyridin-4-yl)phenyl)-2-methoxypyridin-3-yl)methyl)amino)methyl)pyrrolidin-2-one]
15 | 49.4 nM | COc1cc(-c2nccc(-c3cccc(-c4ccc(CNC[C@@H]5CCC(=O)N5)c(OC)n4)c3Cl)c2Cl)ccc1CNCCO [Cmpd 70, (S)-5-((((6-(2-chloro-3-(3-chloro-2-(4-(((2-hydroxyethyl)amino)methyl)-3-methoxyphenyl)pyridin-4-yl)phenyl)-2-methoxypyridin-3-yl)methyl)amino)methyl)pyrrolidin-2-one]
16 | 30.6 nM | COc1cc(-c2nccc(-c3cccc(-c4cc(Cl)c(CNC[C@@H]5CCC(=O)N5)c(OC)n4)c3Cl)c2Cl)ccc1CN(C)C[C@H](C)O [Cmpd 71, (S)-5-((((4-chloro-6-(2-chloro-3-(3-chloro-2-(4-((((S)-2-hydroxypropyl)(methyl)amino)methyl)-3-methoxyphenyl)pyridin-4-yl)phenyl)-2-methoxypyridin-3-yl)methyl)amino)methyl)pyrrolidin-2-one]
17 | 392 nM | COc1nc(-c2cccc(-c3ccnc(-c4cc(Cl)c5c(c4)CCN(CCCF)C5)c3Cl)c2Cl)ccc1CNC[C@@H]1CCC(=O)N1 [Cmpd 72, (S)-5-((((6-(2-chloro-3-(3-chloro-2-(8-chloro-2-(3-fluoropropyl)-1,2,3,4-tetrahydroisoquinolin-6-yl)pyridin-4-yl)phenyl)-2-methoxypyridin-3-yl)methyl)amino)methyl)pyrrolidin-2-one]
18 | 70 nM | COc1cc(-c2nccc(-c3cccc(-c4ccc(CNC[C@@H]5CCC(=O)N5)c(OC)n4)c3Cl)c2Cl)cc2c1CN(CCC1(O)CC1)CC2 [Cmpd 74, (S)-5-((((6-(2-chloro-3-(3-chloro-2-(2-(2-(1-hydroxycyclopropyl)ethyl)-8-methoxy-1,2,3,4-tetrahydroisoquinolin-6-yl)pyridin-4-yl)phenyl)-2-methoxypyridin-3-yl)methyl)amino)methyl)pyrrolidin-2-one]
19 | 16 nM | COc1cc(-c2nccc(-c3cccc(-c4ccc(CNC[C@@H]5CCC(=O)N5)c(OC)n4)c3Cl)c2Cl)ccc1CN(C)C[C@H](C)O [Cmpd 75, (S)-5-((((6-(2-chloro-3-(3-chloro-2-(4-((((S)-2-hydroxypropyl)(methyl)amino)methyl)-3-methoxyphenyl)pyridin-4-yl)phenyl)-2-methoxypyridin-3-yl)methyl)amino)methyl)pyrrolidin-2-one]
20 | 89.7 nM | COc1cc(-c2nccc(-c3cccc(-c4ccc(CNC[C@@H]5CCC(=O)N5)c(OC)n4)c3Cl)c2Cl)ccc1CN1CC[C@H](C(=O)OC(C)C)C1 [Cmpd 76, isopropyl (S)-1-(4-(3-chloro-4-(2-chloro-3-(6-methoxy-5-(((((S)-5-oxopyrrolidin-2-yl)methyl)amino)methyl)pyridin-2-yl)phenyl)pyridin-2-yl)-2-methoxybenzyl)pyrrolidine-3-carboxylate]
21 | 105 nM | COc1cc(-c2nccc(-c3cccc(-c4ccc(CNC[C@@H]5CCC(=O)N5)c(OC)n4)c3Cl)c2Cl)ccc1CN1CC[C@H](C(=O)O)C1 [Cmpd 77, (S)-1-(4-(3-chloro-4-(2-chloro-3-(6-methoxy-5-(((((S)-5-oxopyrrolidin-2-yl)methyl)amino)methyl)pyridin-2-yl)phenyl)pyridin-2-yl)-2-methoxybenzyl)pyrrolidine-3-carboxylic acid]
22 | 205 nM | COc1cc(-c2nccc(-c3cccc(-c4ccc(CNC[C@@H]5CCC(=O)N5)c(OC)n4)c3Cl)c2Cl)ccc1CN1CCC[C@H]1C(=O)O [Cmpd 78, (4-(3-chloro-4-(2-chloro-3-(6-methoxy-5-(((((S)-5-oxopyrrolidin-2-yl)methyl)amino)methyl)pyridin-2-yl)phenyl)pyridin-2-yl)-2-methoxybenzyl)-L-proline]
23 | 50.6 nM | COc1cc(-c2nccc(-c3cccc(-c4ccc(CNC[C@@H]5CCC(=O)N5)c(OC)n4)c3Cl)c2Cl)cc(F)c1CN[C@H]1C[C@](C)(O)C1 [Cmpd 79]
